Source: ChEMBL document CHEMBL1132204, “Design and synthesis of phosphinamide-based hydroxamic acids as inhibitors of matrix metalloproteinases” (J Med Chem, 1999)

Columns and labels:
Stromelysin-1 = Stromelysin-1 (Homo sapiens, UniProt P08254); test: Inhibition of human matrix metalloprotease-3
Interstitial collagenase = biological target: T1, Interstitial collagenase (Homo sapiens, UniProt P03956); test: Inhibition of human matrix metalloprotease 1
T1 sequence (P03956 whole entry): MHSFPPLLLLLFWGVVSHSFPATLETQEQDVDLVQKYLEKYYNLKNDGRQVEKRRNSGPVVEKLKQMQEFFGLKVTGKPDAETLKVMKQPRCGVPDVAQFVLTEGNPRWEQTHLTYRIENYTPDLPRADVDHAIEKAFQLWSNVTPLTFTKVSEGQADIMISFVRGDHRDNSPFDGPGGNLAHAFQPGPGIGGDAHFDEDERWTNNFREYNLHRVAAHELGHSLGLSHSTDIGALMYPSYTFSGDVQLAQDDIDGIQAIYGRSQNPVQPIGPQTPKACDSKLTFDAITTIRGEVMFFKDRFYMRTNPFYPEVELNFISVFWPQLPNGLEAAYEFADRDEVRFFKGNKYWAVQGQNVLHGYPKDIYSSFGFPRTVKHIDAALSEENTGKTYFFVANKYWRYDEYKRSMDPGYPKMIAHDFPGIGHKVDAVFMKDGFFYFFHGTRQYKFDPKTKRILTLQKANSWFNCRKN

Matrilysin = biological target: T2, Matrilysin (Homo sapiens, UniProt P09237); test: Inhibition of human matrix metalloprotease 7
T2 sequence (P09237 whole entry): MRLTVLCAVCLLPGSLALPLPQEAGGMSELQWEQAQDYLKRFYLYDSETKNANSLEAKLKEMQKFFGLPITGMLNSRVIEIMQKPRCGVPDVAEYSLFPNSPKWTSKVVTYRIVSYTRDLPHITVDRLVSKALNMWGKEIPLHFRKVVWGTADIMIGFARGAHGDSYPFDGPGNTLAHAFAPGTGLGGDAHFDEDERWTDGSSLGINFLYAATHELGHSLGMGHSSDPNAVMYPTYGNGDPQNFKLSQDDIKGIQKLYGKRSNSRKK

[1] = biological target: Matrix metalloproteinase-9 (Homo sapiens, UniProt P14780); test: Inhibition of human matrix metalloprotease 9
Sequence of Matrix metalloproteinase-9 (P14780 whole entry): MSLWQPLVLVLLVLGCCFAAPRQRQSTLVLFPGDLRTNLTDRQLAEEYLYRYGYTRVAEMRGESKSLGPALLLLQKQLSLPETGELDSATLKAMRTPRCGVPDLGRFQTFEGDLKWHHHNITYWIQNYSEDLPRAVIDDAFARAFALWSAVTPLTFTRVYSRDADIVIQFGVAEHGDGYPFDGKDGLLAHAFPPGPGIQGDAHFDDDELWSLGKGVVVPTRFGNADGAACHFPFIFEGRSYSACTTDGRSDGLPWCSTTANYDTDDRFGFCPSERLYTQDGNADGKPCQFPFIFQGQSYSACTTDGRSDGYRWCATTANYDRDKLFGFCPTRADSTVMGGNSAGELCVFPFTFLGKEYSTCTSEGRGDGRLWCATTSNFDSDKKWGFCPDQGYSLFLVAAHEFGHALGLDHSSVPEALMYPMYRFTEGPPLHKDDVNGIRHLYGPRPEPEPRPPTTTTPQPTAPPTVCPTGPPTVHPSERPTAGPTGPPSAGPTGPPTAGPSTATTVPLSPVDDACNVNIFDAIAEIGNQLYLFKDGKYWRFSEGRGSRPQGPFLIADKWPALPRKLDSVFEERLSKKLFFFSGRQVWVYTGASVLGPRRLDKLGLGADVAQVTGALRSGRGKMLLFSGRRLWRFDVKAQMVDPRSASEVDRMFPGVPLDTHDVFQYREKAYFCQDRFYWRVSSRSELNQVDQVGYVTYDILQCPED

[2] = biological target: 72 kDa type IV collagenase (Homo sapiens, UniProt P08253); test: Inhibition of human matrix metalloprotease 2
Sequence of 72 kDa type IV collagenase (P08253 whole entry): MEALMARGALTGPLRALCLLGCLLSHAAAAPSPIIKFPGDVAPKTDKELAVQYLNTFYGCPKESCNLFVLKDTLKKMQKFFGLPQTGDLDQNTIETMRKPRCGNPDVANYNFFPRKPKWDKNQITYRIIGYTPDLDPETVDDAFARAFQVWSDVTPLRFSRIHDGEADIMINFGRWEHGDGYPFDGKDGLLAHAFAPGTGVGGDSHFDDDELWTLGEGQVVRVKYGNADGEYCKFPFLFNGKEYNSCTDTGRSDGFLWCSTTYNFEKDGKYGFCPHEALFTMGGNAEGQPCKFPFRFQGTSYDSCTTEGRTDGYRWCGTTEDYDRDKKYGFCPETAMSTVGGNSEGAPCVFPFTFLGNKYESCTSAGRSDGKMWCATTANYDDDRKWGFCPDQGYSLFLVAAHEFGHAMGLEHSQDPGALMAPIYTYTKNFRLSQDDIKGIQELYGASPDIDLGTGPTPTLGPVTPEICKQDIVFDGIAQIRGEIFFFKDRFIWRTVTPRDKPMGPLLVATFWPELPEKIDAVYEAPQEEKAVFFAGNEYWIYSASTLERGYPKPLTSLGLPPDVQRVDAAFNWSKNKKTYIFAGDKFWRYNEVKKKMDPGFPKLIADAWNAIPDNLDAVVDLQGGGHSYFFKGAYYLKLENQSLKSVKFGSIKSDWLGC

Neutrophil collagenase = Neutrophil collagenase (Homo sapiens, UniProt P22894); test: Inhibition of human Matrix metalloprotease-8
Sequence of Neutrophil collagenase (P22894 whole entry): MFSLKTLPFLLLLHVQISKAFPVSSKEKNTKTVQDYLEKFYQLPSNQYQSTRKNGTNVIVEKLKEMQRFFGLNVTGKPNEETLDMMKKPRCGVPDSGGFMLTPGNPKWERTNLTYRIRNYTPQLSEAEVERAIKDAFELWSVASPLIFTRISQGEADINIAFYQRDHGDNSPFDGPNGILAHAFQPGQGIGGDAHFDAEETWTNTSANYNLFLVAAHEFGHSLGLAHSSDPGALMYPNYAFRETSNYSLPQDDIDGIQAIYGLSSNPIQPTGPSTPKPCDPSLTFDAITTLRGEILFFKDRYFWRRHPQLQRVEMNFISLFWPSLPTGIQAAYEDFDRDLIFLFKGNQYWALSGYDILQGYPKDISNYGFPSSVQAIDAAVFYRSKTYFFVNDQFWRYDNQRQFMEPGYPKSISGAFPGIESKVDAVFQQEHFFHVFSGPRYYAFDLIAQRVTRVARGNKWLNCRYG

Collagenase 3 = Collagenase 3 (Rattus norvegicus, UniProt P23097)
Description: Inhibition of rat matrix metalloprotease 13

Sequence of Stromelysin-1 (P08254 whole entry): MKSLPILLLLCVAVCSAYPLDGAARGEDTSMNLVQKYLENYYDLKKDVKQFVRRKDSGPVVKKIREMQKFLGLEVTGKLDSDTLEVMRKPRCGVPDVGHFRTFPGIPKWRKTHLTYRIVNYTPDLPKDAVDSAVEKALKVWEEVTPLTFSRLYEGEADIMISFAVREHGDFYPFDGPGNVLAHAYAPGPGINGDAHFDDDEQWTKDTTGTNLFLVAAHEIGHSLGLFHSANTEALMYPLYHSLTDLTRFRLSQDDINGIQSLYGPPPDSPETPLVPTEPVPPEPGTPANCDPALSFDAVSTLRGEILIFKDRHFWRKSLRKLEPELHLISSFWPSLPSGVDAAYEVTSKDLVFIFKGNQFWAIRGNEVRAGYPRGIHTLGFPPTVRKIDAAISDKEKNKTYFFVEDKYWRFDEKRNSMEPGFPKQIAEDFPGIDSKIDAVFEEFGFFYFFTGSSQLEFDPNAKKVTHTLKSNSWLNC

Structure (SMILES)	IC50 (Stromelysin-1) [nM]	IC50 (Interstitial collagenase) [nM]	IC50 (Matrilysin) [nM]	IC50 [1] [nM]	IC50 [2] [nM]	IC50 (Neutrophil collagenase) [nM]	IC50 (Collagenase 3) [nM]
CCP(=O)(c1ccccc1)N(Cc1ccccc1)[C@H](C)C(=O)NO (stereo partly specified)	700	608	–	–	–	–	–
C[C@H](C(=O)NO)N(Cc1ccccc1)P(=O)(c1ccccc1)c1ccccc1	10300	6790	–	–	–	–	–
O=C(CN(CCc1ccccc1)P(=O)(c1ccccc1)c1ccccc1)NO	1750	854	–	–	–	–	–
CCCCCCN([C@H](C)C(=O)NO)[P@](C)(=O)c1ccccc1	1600	1290	–	–	–	–	–
CC(C)C[C@H](C(=O)NO)N(Cc1ccccc1)[P@](C)(=O)c1ccccc1	24.4	20.5	886	20.6	13.3	5.3	7.4
C[P@@](=O)(c1ccccc1)N(CCc1ccccc1)CC(=O)NO	700	525	–	–	–	–	–
C[C@H](C(=O)NO)N(Cc1ccccc1)[P@](C)(=O)c1ccccc1	67.9	120	1860	32.5	–	–	–
CC(C)C[C@@H](N[P@@](C)(=O)c1ccccc1)C(=O)NO	130000	> 100000	–	–	–	–	–
CC[P@@](=O)(c1ccccc1)N(Cc1ccccc1)[C@H](C)C(=O)NO	49300	33300	–	–	–	–	–
CC(C)C[C@H](C(=O)NO)N(Cc1ccccc1)P(C)(C)=O	1040	518	–	–	–	–	–
CC(C)C[C@@H](N[P@](C)(=O)c1ccccc1)C(=O)NO	2550	2510	–	–	–	–	–
CC(C)C[C@H](C(=O)NO)N(Cc1ccccc1)[P@@](C)(=O)c1ccccc1	9170	7120	–	–	–	–	–
